Measured values from patent publication US20260265177A1, “BICYCLIC COMPOUNDS AS INACTIVATORS OF OAT AND GABA-AT” (Northwestern University, priority 2023, published 2026).

Columns and labels:
Assay type in all cases: biochemical
hOAT [1] = target: T1, hOAT (Homo sapiens, UniProt P04181); assay: Turnover number and partition ratio by titrating hOAT with varying equivalents of inactivator
T1 sequence (P04181 36-439 limits assumed): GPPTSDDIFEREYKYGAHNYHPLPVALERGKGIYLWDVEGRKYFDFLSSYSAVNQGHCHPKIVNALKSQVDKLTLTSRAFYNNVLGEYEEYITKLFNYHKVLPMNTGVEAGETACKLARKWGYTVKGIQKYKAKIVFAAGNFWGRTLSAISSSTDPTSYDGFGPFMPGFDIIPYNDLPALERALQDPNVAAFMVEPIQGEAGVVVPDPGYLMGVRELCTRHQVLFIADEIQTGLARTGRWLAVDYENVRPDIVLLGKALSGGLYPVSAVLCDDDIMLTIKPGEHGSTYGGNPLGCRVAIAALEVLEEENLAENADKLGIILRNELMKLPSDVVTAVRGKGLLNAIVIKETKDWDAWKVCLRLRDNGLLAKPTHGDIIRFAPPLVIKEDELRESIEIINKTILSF
Method: The turnover number and partition ratio of 6 were determined by titrating a known amount of hOAT with varying equivalents of inactivator (FIG. 12). The linear relationship of the remaining enzymatic activity was extrapolated to yield the number of equivalents of 6 required to inactivate the enzyme completely. From this we determined the turnover number of 6 to be 8.5 equivalent and the partition ratio to be 7.5. Based on our understanding of the mechanism, we believe that the turnover number may indicate that the second deprotonation is slow, which would allow the ketimine time to hydrolyze in a higher percentage than if the second deprotonation occurred rapidly.

hOAT [2] = target: T1, hOAT; assay: Dialysis of hOAT inactivated by compound; conditions: hOAT dialyzed at 5° C. for 72 hours
Method: Samples of hOAT that had been inactivated by varying equivalents of 6 were dialyzed at 5° C. for 72 hours. At 4-, 12-, 24-, 48-, and 72-hour time points, aliquots were taken and the activity of the hOAT was measured.

GABA-AT = assay: Time-dependent inhibition of GABA-AT; conditions: conclusion statement
From the text: Time-dependent inhibition of both GABA-AT and OAT were explored with racemic 6 (FIGS. 4 and 5). […] Racemic Vince lactam was used for the aforementioned biological assays.

hOAT [3] = target: T1, hOAT; assay: Time-dependent inactivation of hOAT; conditions: enantiopure compound

N[C@@H]1CC2C(F)(F)[C@@]2(C(=O)O)C1 (stereo partly drawn) [compound 6, (1S,3R)-3-amino-6,6-difluorobicyclo[3.1.0]hexane-1-carboxylic acid]
partition ratio (hOAT [1]): 7.5
turnover number (hOAT [1]; extrapolated from linear relationship of remaining enzymatic activity): 8.5 equivalent
enzymatic activity recovered after dialysis (hOAT [2]): No enzymatic activity was recovered
activity in GABA-AT (GABA-AT): modest activity
kinact/KI (hOAT [3]): 2.6 M⁻¹ s⁻¹
